Experimental data as given in US6482921B1, “Uridyl peptide antibiotic (UPA) derivatives, their synthesis and use” (Essential Therapeutics, Inc., priority 1999, dated 2002).
≈ marks a conversion by molar mass, not a printed value.

What was measured:
[1] = test system: Mycobacterium tuberculosis TN1618; assay type: cell-based
[2] = test system: Mycobacterium tuberculosis TN565; assay type: cell-based

SMILES | MIC TN1618 (RESISTANT) [1] | MIC TN565 (RESISTANT) [2]
CC(C)C[C@H](NC(=O)N[C@@H](Cc1c[nH]c2ccccc12)C(=O)O)C(=O)N[C@H](C(=O)NC[C@H]1C[C@@H](O)[C@H](n2ccc(=O)[nH]c2=O)O1)[C@H](C)N(C)C(=O)CN [Compound 109] | 10 µg/mL (≈ 13.5 µM) | 10 µg/mL (≈ 13.5 µM)
CSCCC(NC(=O)NC(Cc1ccc(O)cc1)C(=O)O)C(=O)NC(C(=O)NCC1CC(O)C(n2ccc(=O)[nH]c2=O)O1)C(C)N(C)C(=O)C(C)N [Compound 115, 1-[5′[(2S,3S)-N^3-L-Alanyl-N^2-[N-[[(1S)-1-carboxy-4-hydroxyphenethyl)-carbamoyl]-L-methionyl]-N^3-methyl-2,3-diaminobutyramido]-3′,5′-dideoxy-α-L-arabinofuranosyl]uracil] | 30 µg/mL (≈ 40 µM) | >30 µg/mL
CC(N)C(=O)N(C)C(C)C(NC(=O)C(Cc1ccccc1)NC(=O)NC(Cc1ccc2ccccc2c1)C(=O)O)C(=O)NCC1CC(O)C(n2ccc(=O)[nH]c2=O)O1 [Compound 133, 1-[5′-[(2S,3S)-N^3-L-Alanyl-N^2-[N-[[(1S)-1-carboxy-2-naphthalenethyl]carbamoyl]-L-phenylalanyl]-N^3-methyl-2,3-diaminobutyramido]-3′,5′-dideoxy-α-L-arabinofuranosyl]uracil] | 10 µg/mL (≈ 12.5 µM) | 30 µg/mL (≈ 37.5 µM)
CC(N)C(=O)N(C)C(C)C(NC(=O)C(Cc1ccc(C(F)(F)F)cc1)NC(=O)NC(Cc1c[nH]c2ccccc12)C(=O)O)C(=O)NCC1CC(O)C(n2ccc(=O)[nH]c2=O)O1 [Compound 146, 1-[5′-[(2S,3S)-N^3-L-Alanyl-N^2-[N-[[(1S)-1-carboxy-2-indol-3-ylethyl]carbamoyl]-L-4-(trifluoromethyl)phenylalanyl]-N^3-methyl-2,3-diaminobutyramido]-3′,5′-dideoxy-α-L-arabinofuranosyl]uracil] | 10 µg/mL (≈ 11.7 µM) | 10 µg/mL (≈ 11.7 µM)
CC(N)C(=O)N(C)C(C)C(NC(=O)C(Cc1ccc(-c2ccccc2)cc1)NC(=O)NC(Cc1c[nH]c2ccccc12)C(=O)O)C(=O)NCC1CC(O)C(n2ccc(=O)[nH]c2=O)O1 [Compound 155, 1-[5′-[(2S,3S)-N^3-L-Alanyl-N^2-[N-[[(1S)-1-carboxy-2-indol-3-ylethyl)carbamoyl]-L-4-biphenylalanyl]-N^3-methyl-2,3-diaminobutyramidol-3′,5′-dideoxy-α-L-arabinofuranosyl]uracil] | 10 µg/mL (≈ 11.5 µM) | 10 µg/mL (≈ 11.5 µM)
CC(N)C(=O)N(C)C(C)C(NC(=O)C(Cc1ccc(F)cc1)NC(=O)NC(Cc1ccc(O)cc1)C(=O)O)C(=O)NCC1CC(O)C(n2ccc(=O)[nH]c2=O)O1 [Compound 157, 1-[5′-[(2S,3S)-N^3-L-Alanyl-N^2-[N-[[(1S)-1-carboxy-4-hydroxyphenethyl]carbamoyl]-L-4-fluorophenylalanyl]-N^3-methyl-2,3-diaminobutyramido]-3′,5′-dideoxy-α-L-arabinofuranosyl]uracil] | 10 µg/mL (≈ 12.7 µM) | 10 µg/mL (≈ 12.7 µM)
CC(N)C(=O)N(C)C(C)C(NC(=O)C(Cc1ccc(F)cc1)NC(=O)NC(Cc1c[nH]c2ccccc12)C(=O)O)C(=O)NCC1CC(O)C(n2ccc(=O)[nH]c2=O)O1 [Compound 158, 1-[5′-[(2S,3S)-N^3-L-Alanyl-N^2-[N-[[(1S)-1-carboxy-2-indol-3-ylethyl]carbamoyl]-L-4-fluorophenylalanyl]-N^3-methyl-2,3-diaminobutyramidol-3′,5′-dideoxy-α-L-arabinofuranosyl]uracil] | 10 µg/mL (≈ 12.4 µM) | 10 µg/mL (≈ 12.4 µM)
CC(C)CC(N)C(=O)N(C)C(C)C(NC(=O)C(Cc1ccccc1)NC(=O)NC(Cc1c[nH]c2ccccc12)C(=O)O)C(=O)NCC1CC(O)C(n2ccc(=O)[nH]c2=O)O1 [Compound 159, 1-[5′-[(2S,3S)-N^2-[N-[[(1S)-1-Carboxy-2-indol-3-ylethyl]carbamoyl]-L-phenylalanyl]l-N^3-L-leucyl-N^3-methyl-2,3-diaminobutyramido]-3′,5′-dideoxy-α-L-arabinofuranosyl]uracil] | 10 µg/mL (≈ 12 µM) | 30 µg/mL (≈ 36.1 µM)
CC(N)C(=O)N(C)C(C)C(NC(=O)C(Cc1ccccc1)NC(=O)NC(Cc1c[nH]c2ccccc12)C(=O)O)C(=O)NCC1CC(O)C(n2ccc(=O)[nH]c2=O)O1 [Compound 164, 1-[5′-[(2S,3S)-N^3-L-Alanyl-N^2-[N-[[(1S)-1-carboxy-2-indol-3-ylethyl]carbamoyl]-L-phenylalanyl]-N^3-methyl-2,3-diaminobutyramido]-3′,5′-dideoxy-α-L-arabinofuranosyl]uracil] | 10 µg/mL (≈ 12.7 µM) | 10 µg/mL (≈ 12.7 µM)
C[C@H](NC(=O)N[C@@H](Cc1c[nH]c2ccccc12)C(=O)O)C(=O)N[C@H](C(=O)N/C=C1/C[C@@H](O)[C@H](n2ccc(=O)[nH]c2=O)O1)[C@H](C)N(C)C(=O)[C@@H](N)Cc1cccc(O)c1 [Pacidamycin 4, reference compound] | >30 µg/mL | >30 µg/mL
